Measurements published in patent US20250360145A1, “CSF-1R INHIBITORS AND USES THEREOF” (Myrobalan Therapeutics, Inc., priority 2022, published 2025).
Where two headings read alike, the source gives them in different places.

Assays:
[1] = test system: human iPSC-derived microglia (hiPSC-MG); assay: hiPSC-MG survival (Presto-Blue viability); format: cell-based; details: 48 h treatment
FLT3 = FLT3 (Homo sapiens (Human), UniProt P36888); assay: Biochemical HTRF kinase assay, FLT3
CSF-1R = CSF-1R (Homo sapiens (Human), UniProt P07333); assay: Biochemical HTRF kinase assay, CSF-1R; details: recombinant human CSF-1R;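 further: enzyme incubated with inhibitor plus a substrate and ATP mix for one hour at room temperature before HTRF detection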
Chain of CSF-1R (P07333 20-972): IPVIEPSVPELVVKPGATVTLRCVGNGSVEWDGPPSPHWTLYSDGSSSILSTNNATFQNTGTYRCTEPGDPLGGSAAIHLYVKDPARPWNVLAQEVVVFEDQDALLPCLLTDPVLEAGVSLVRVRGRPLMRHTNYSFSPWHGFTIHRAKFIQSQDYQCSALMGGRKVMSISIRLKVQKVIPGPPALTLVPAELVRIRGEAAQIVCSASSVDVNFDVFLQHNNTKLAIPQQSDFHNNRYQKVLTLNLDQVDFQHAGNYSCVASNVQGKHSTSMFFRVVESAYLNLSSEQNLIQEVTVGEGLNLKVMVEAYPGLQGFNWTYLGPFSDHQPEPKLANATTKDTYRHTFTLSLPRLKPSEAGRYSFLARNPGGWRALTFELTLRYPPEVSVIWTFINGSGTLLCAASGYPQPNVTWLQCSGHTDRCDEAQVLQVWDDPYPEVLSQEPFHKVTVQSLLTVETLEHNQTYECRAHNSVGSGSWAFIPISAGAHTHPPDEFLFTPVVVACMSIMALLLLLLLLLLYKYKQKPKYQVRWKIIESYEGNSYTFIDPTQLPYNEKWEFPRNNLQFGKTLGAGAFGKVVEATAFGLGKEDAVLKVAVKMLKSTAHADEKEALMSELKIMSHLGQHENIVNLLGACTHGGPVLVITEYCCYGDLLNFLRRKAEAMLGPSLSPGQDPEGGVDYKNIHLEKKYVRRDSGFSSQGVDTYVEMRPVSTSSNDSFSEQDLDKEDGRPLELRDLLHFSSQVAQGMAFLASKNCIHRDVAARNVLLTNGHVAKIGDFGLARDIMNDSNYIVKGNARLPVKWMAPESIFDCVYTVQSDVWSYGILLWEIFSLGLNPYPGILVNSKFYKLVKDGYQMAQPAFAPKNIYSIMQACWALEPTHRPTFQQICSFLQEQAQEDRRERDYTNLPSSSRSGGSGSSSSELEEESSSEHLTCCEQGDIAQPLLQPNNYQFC

[2] = In vivo PK study (plasma and brain exposure); parameters: species or system CD1 mouse; details: for half-life: CD1, mouse
In short: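 Male CD1 mice (23-30 g, 6-8 weeks) dosed at 45 mg/kg p.o. or 2 mg/kg i.v. Serum and brain samples collected and quantified by LC-MS/MS.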

[3] = Brain protein binding study; format: in vitro ADME; details: mouse brain homogenate, equilibrium dialysis 4 hours
PDGFRβ = PDGFRβ (Homo sapiens (Human), UniProt P09619); assay: Biochemical HTRF kinase assay, PDGFRβ;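 further: kinase reaction with substrate/ATP mix run 1 h at room temperature in 384-well format, HTRF signal detection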
Chain of PDGFRβ (P09619 33-1106): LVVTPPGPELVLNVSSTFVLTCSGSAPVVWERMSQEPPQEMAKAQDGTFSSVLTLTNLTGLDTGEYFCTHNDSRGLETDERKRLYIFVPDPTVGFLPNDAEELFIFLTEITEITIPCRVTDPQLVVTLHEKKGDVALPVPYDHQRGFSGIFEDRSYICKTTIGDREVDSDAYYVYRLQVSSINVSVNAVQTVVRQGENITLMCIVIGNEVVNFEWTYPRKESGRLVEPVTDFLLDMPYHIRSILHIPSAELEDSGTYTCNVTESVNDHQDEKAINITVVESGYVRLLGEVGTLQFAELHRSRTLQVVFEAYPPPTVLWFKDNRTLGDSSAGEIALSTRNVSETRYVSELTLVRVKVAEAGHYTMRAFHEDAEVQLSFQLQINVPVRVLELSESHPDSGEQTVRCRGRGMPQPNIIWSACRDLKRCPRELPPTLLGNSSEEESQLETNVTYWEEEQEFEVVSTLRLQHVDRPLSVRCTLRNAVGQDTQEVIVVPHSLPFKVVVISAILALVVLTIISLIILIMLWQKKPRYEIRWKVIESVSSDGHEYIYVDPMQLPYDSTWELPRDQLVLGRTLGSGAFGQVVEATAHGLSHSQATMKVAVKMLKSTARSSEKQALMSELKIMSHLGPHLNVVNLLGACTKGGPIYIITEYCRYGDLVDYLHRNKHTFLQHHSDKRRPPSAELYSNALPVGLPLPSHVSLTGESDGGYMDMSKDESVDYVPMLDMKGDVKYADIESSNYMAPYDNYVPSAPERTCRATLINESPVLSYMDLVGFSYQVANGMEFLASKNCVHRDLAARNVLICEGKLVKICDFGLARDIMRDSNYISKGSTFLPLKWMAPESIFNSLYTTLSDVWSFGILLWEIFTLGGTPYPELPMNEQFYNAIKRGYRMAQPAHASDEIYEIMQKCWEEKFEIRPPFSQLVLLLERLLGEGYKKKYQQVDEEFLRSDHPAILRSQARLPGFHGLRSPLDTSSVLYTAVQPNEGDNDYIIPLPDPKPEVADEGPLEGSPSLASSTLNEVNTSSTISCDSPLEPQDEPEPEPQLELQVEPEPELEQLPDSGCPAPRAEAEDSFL

[4] = test system: Ba/F3_CSF-1R (stably expressing human CSF-1R kinase); assay: Cell proliferation assay, Ba/F3_CSF-1R; format: cell-based; details: BaF3, 72 h, Ba/F3_CSF-1R cells, 72 hours treatment; read-out: CSF-1R BaF3 EC50
EOC2 cell = assay: Cell proliferation assay, EOC2; format: cell-based, mouse; details: Mus musculus, 72 h, EOC2 cells, 72 hours treatment; read-out: ECO2 EC50
primary rat microglia = assay: Primary rat microglia survival; format: cell-based; details: 3 days of exposure, Iba1 staining
Text: To assess the potency of CSF1R inhibitors disclosed herein we isolated and expanded primary brain glia from rat cortices in-vitro. This glial culture is about 20% microglia that is supported mostly by astrocytes that make up the rest of the population. The brain glia was exposed to CSF1R inhibitors for 3 days followed by paraformaldehyde fixation and immunofluorescence staining for the microglia marker, Iba1. The glial was imaged using a high-content-imager and the changes in microglia content were quantified. Using GraphPad Prism, a four-parameter logistic regression was applied to determine the potency of the CSF1R inhibitors.

c-Kit = c-Kit (Homo sapiens (Human), UniProt P10721); assay: Biochemical HTRF kinase assay, c-Kit;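 further: enzyme reaction with substrate and ATP run in 384-well plates for 1 hour at room temperature, kinase activity detected by HTRF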
Chain of c-Kit (P10721 26-976): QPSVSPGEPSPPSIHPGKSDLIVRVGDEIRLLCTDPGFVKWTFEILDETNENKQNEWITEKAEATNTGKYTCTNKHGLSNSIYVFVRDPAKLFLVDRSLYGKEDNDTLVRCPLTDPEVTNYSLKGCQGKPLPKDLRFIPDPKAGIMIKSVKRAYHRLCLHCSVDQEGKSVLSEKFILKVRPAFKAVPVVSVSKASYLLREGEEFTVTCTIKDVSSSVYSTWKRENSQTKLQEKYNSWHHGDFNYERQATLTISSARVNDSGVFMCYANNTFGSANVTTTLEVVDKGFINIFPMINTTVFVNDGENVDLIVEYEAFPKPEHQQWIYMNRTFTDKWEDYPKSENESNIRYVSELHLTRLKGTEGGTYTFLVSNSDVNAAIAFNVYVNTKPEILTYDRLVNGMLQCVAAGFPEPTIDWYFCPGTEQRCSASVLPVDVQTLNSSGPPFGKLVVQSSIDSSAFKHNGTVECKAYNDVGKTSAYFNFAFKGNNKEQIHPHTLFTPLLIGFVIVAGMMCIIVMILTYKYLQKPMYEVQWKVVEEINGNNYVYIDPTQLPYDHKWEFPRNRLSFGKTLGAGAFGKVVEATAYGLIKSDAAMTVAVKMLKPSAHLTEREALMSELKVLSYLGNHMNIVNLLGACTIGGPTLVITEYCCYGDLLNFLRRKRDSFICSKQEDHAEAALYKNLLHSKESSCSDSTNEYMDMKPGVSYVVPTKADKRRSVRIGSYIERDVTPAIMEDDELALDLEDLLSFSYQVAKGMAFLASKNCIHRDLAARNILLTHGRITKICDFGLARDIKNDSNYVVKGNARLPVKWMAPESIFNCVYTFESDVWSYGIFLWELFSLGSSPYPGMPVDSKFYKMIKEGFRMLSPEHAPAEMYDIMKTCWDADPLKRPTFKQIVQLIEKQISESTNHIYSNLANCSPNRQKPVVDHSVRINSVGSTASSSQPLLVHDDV

Chain of FLT3 (P36888 27-993): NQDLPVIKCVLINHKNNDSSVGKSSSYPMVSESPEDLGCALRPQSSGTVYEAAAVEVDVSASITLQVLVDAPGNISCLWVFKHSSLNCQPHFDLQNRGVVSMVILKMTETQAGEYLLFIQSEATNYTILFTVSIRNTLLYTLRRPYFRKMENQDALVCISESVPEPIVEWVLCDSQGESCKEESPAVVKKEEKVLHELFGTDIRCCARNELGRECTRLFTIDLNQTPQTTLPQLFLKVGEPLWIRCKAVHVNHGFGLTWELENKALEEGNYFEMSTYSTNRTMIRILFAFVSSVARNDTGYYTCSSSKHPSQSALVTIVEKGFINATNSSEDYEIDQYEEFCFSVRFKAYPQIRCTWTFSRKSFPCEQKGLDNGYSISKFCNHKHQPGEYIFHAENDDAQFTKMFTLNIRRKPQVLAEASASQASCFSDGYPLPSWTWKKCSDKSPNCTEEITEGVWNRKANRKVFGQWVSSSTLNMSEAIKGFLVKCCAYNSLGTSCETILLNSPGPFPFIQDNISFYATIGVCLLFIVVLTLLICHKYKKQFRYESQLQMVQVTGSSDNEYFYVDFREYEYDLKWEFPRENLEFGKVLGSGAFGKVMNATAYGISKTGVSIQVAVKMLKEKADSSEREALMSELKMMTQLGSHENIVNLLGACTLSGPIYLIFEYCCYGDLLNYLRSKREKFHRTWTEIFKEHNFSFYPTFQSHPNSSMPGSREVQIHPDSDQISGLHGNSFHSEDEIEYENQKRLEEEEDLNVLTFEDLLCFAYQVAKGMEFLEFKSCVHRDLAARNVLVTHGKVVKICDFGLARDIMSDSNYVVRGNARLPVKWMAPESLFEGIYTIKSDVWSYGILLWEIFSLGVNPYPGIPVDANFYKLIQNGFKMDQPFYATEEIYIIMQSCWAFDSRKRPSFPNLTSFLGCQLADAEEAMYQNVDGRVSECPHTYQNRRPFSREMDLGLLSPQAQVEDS

## COc1ccc(COc2ncc(Cc3ccnc4cc(OC)cnc34)cc2OC)nc1 [Example 16, 3-methoxy-8-((5-methoxy-6-((5-methoxypyridin-2-yl)methoxy)pyridin-3-yl)methyl)-1,5-naphthyridine]
[1]
  hiPSC-MG survival IC50 compared with BLZ945: lower than that of BLZ945
[1]; Homo sapiens, Microglia
  IC50: 31.5 nM
FLT3; recombinant human protein
  IC50: > 1000 nM
FLT3; selectivity: IC50 of FLT3 as multiple of IC50 of CSF-1R
  FLT3 Fold: >100 fold
CSF-1R; Table 2
  IC50: 2.1 nM
CSF-1R; Table 3
  IC50: 2.1 nM
[2]; CD1 mouse, i.v. 2 mg/kg
  IV-2mpk CL: 7.47 mL/min/kg
  IV-2mpk T1/2: 2.52 h
[2]; male, CD1, brain, po, mouse, p.o. 45 mg/kg, BBB penetration
  Kp uu: 1.1
[2]; male, serum, iv, 2 mg/kg, CD1 mouse, i.v. 2 mg/kg, read-out: IV-2mpk T1/2 (converted)
  half-life: 2.52 h
[2]; male, serum, po, 45 mg/kg, CD1 mouse, p.o. 45 mg/kg, read-out: PO-45mpk T1/2 (converted)
  half-life: 1.9 h
[2]; male, CD1, po, mouse, p.o. 45 mg/kg, brain, read-out: PO-45mpk AUClast-brain
  AUC(0-t): 76.8 µg·h/mL
[2]; male, CD1, po, mouse, p.o. 45 mg/kg, plasma, Tables 7 and 8, read-out: PO-45mpk AUClast-plasma
  AUC(0-t): 210 µg·h/mL
[2]; male, serum, iv, CD1 mouse, i.v. 2 mg/kg, read-out: IV-2mpk AUCInf
  AUC(0-inf): 4.46 µg·h/mL
[2]; male, serum, iv, CD1 mouse, i.v. 2 mg/kg, read-out: IV-2mpk AUClast
  AUC(0-t): 4.46 µg·h/mL
[2]; male, serum, iv, CD1 mouse, i.v. 2 mg/kg, read-out: IV-2mpk CL (converted)
  clearance: 7.47 mL/min/kg
[2]; male, serum, iv, CD1 mouse, i.v. 2 mg/kg, read-out: IV-2mpk VSS
  Vd: 0.955 L/kg
[2]; male, serum, po, CD1 mouse, p.o. 45 mg/kg vs i.v. 2 mg/kg
  bioavailability: 215%
[2]; male, serum, po, CD1 mouse, p.o. 45 mg/kg, Tables 5 and 6, read-out: PO-45mpk AUClast
  AUC(0-t): 216 µg·h/mL
[2]; male, serum, po, CD1 mouse, p.o. 45 mg/kg, read-out: PO-45mpk AUCInf
  AUC(0-inf): 216 µg·h/mL
[2]; male, serum, po, CD1 mouse, p.o. 45 mg/kg, read-out: PO-45mpk Cmax
  Cmax: 31400 ng/mL
[2]; male, serum, po, CD1 mouse, p.o. 45 mg/kg, read-out: PO-45mpk Tmax
  Tmax: 1 h
[3]
  BPB-mouse (Bound) (%): 98.10%
PDGFRβ; recombinant human protein, read-out: PDGFR-1β IC50
  IC50: > 1000 nM
PDGFRβ; selectivity: IC50 of PDGFR-1β as multiple of IC50 of CSF-1R
  PDGFR-1β Fold: >100 fold
[4]
  EC50: 61.7 nM
EOC2 cell
  EC50: 39.2 nM
Primary rat microglia
  primary rat microglia survival: dose-dependent inhibition of primary rat microglia survival
c-Kit; recombinant human protein, read-out: cKit IC50
  IC50: 881 nM
c-Kit; selectivity: IC50 of cKit as multiple of IC50 of CSF-1R
  cKit Fold: >100 fold
